The results in this text go back to patent publication US7098234B2, “Indole derivatives, process for preparation of the same and use thereof” (Ono Pharmaceutical Co., Ltd., priority 2000, dated 2006).

One may read the Ki as a dissociation constant, usually derived from enzyme kinetics or from competition with a known ligand. The term IC50 denotes the concentration that gives 50% inhibition. Low values mean higher potency, high ones lower potency.

Structures are written as SMILES.

For assay [1], the target named is T1, mouse DP receptor (Mus musculus, UniProt P70263).
T1 construct: expressed in transfected cells; host or cells: CHO cells (membrane fraction)
T1 sequence (P70263 1-357): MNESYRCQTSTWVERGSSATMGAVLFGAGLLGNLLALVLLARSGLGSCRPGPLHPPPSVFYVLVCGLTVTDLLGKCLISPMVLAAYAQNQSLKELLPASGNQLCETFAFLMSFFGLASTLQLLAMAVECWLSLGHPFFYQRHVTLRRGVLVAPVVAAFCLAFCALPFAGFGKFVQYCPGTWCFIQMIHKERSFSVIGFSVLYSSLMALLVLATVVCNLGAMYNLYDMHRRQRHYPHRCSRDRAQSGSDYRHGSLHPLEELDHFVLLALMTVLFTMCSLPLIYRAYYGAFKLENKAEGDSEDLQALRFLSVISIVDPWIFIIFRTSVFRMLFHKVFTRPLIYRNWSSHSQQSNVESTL
Put plainly: Receptor binding test using prostanoid DP receptor-expressing cells (3H-PGD2 binding inhibition). The conditions noted are these: CHO cell membranes expressing mouse DP receptor; 3H-PGD2 2.5 nmol/L; Ki=IC50/(1+([L]*/Kd)). How it is done: The compound of the present invention represented by formula (I) potently binds to a DP receptor and show an antagonistic activity. For example, in a laboratory test, such effects were confirmed by the following receptor binding test using prostanoid receptor-expressing cells. • (i) Receptor binding test using prostanoid DP receptor-expressing cells
CHO cells expressing a mouse DP receptor was prepared according to the method of Hirata et al. (Proc. Natl. Acad. Sci., 91, 11192–11196 (1994)) and used as a membrane standard.
A reaction solution (200 μL) containing the prepared membrane standard (30–166 μg) and ^3H-PGD2 was incubated at room temperature for 20 minutes. The reaction was stopped with an ice-cold buffer (1 mL) and the binding ^3H-PGD2 was trapped in on a glass filter by immediate aspiration-filtration under a reduced pressure, and its binding radioactivity was measured using a liquid scintillation counter.
A Kd value and a Bmax value were obtained from Scatchard plots (Ann. N.Y. Acad. Sci., 51, 660 (1949)). Non-specific binding was obtained as the binding radioactivity in the presence of unlabeled PGD2 at an excess amount (10 μmol/L). ^3H-PGD2 binding inhibition by the compound of the present invention was measured by adding ^3H-PGD2 (2.5 nmol/L) and the compound of the present invention as various concentrations. Also, the following buffers were used for the reactions. […]

The target of assay [2] is T1, mouse DP receptor. Kind of assay: DP antagonistic activity assay using prostanoid DP receptor-expressing cells (cAMP production by PGD2). In kind it is cell-based. The conditions noted are these: CHO cells expressing mouse DP receptor; inhibition of cAMP production by PGD2 at 100 nM. How it is done: As shown in the above results, it is apparent that the compound of the present invention potently binds to a DP receptor. • (ii) DP antagonistic activity assay using prostanoid DP receptor-expressing cells
CHO cells expressing a mouse DP receptor were prepared according to the method of Nishigaki et al. (FEBS lett., 364, 339–341 (1995)), inoculated onto a 24-well microplate at 10^5 cells/well, followed by culturing for 2 days, and used for the assay. Each well was washed with 500 μL of MEM (minimum essential medium), and 450 μL of assay medium (MEM containing 1 mmol/L IBMX and 0.1 or 1% BSA), followed by incubation at 37° C. for 10 minutes. Then, an assay medium (50 μL) containing PGD2 alone or PGD2 with a test compound was added thereto to start the reaction, and after the reaction at 37° C. for 10 minutes, 500 μL of ice-cold trichloroacetatic acid (TCA) (10% w/v) was added thereto to stop the reaction. The reaction solution was frozen once (−80° C.) and thawed, and cells were peeled using a scraper, followed by centrifugation at 13,000 rpm for 3 minutes. The cAMP concentration was measured with a cAMP assay kit using the resulting supernatant. […] Trichloro acetic acid (TCA) was extracted to the chloroform layer and removed, the cAMP amount in a sample was determined using the aqueous layer as the sample according to the method described in the [^125I]cAMP assay kit. […]
A general note: Changes in cAMP serve as a functional read-out for many G protein-coupled receptors.

For `Cc1cc2c(CC(=O)O)cccc2n1C(=O)c1ccc(OCCc2ccccc2)cc1` [1(3)], the affinity at mouse DP receptor [1] corresponds to a Ki of 1.8 nM. This compound registered an IC50 at mouse DP receptor [2] of 120 nM. Consider `CCCCCOc1ccc(C(=O)n2c(C)cc3c(CC(=O)O)cccc32)cc1` [1(4), 1-(4-Pentyloxybenzoyl)-2-methylindole-4-acetic acid], for which the Ki at mouse DP receptor [1] came to 4.3 nM.
